ChEMBL document CHEMBL4725394 (J Med Chem, 2020)
Calls of active or inactive are those of the source. The rule behind the calls is not given here.

Experiments:
[1] = target: T1, Free fatty acid receptor 1 (Homo sapiens, UniProt O14842); test: Agonist activity at human GPR40 expressed in CHO cells incubated for 60 mins by FLIPR based Ca2+ mobilization assay; assay type: functional, cell-based
[2] = target: T1, Free fatty acid receptor 1; test: Agonist activity at human GPR40 expressed in CHO cells incubated for 60 mins by FLIPR based Ca2+ mobilization assay relative to gamma-linolenic acid; assay type: functional, cell-based; conditions: filed as agonist
[3] = target: T1, Free fatty acid receptor 1; test: Binding affinity to human GPR40 expressed in CHO cells by LC-MS analysis; assay type: cell-based
[4] = target: T1, Free fatty acid receptor 1; test: Agonist activity at human GPR40 expressed in CHO cells at 10 uM incubated for 60 mins by FLIPR based Ca2+ mobilization assay relative to gamma-linolenic acid; assay type: functional, cell-based
[5] = system: HepG2; test: Cytotoxicity in human HepG2 cells assessed as caspase-3/7 activity level at 30 uM by Caspase-GloTM 3/7 assay relative to staurosporine; assay type: cell-based; conditions: hepg2, 24 h, time 1 day
[6] = Cytotoxicity in human HepG2 cells assessed as intracellular ATP content level at 30 uM by ATPlite-M assay relative to control; assay type: cell-based; conditions: time 1 day, read-out: Activity
[7] = AUC (0 to 24 hrs) in Wistar Kyoto N-STZ-1.5 rat model of streptozotocin-induced diabetes at 0.1 to 1 mg/kg, po followed by glucose challenge during 2-week-dosing study; assay type: ADME, organism-based; parameters: time 2 weeks, dose 0.1-1; conditions: in vivo
[8] = Cmax in Wistar Kyoto N-STZ-1.5 rat model of streptozotocin-induced diabetes at 0.1 to 1 mg/kg, po followed by glucose challenge during 2-week-dosing study; assay type: ADME, organism-based; parameters: time 2 weeks, dose 0.1-1; conditions: in vivo
[9] = AUC (0 to 24 hrs) in diabetic patient at 50 mg, po; assay type: ADME; parameters: dose 50 mg, time < 24 hr, route oral; conditions: human, in vivo
[10] = Cmax in diabetic patient at 50 mg, po; assay type: ADME; parameters: dose 50 mg, route oral; conditions: human, in vivo
[11] = Total clearance in Sprague-Dawley rat at 0.1 mg/kg, iv by high-performance LC-tandem MS analysis; assay type: ADME, organism-based; conditions: in vivo
[12] = system: Rattus norvegicus; test: Stimulation of insulin secretion in Wistar Kyoto N-STZ-1.5 rat model of streptozotocin-induced diabetes at 0.1 to 1 mg/kg, po followed by glucose challenge by ELISA; assay type: functional, organism-based; conditions: dose mg/kg 0.1-1
[13] = target: Voltage-gated inwardly rectifying potassium channel KCNH2 (Homo sapiens, UniProt Q12809); test: Inhibition of human ERG
Voltage-gated inwardly rectifying potassium channel KCNH2, sequence (Q12809 whole entry): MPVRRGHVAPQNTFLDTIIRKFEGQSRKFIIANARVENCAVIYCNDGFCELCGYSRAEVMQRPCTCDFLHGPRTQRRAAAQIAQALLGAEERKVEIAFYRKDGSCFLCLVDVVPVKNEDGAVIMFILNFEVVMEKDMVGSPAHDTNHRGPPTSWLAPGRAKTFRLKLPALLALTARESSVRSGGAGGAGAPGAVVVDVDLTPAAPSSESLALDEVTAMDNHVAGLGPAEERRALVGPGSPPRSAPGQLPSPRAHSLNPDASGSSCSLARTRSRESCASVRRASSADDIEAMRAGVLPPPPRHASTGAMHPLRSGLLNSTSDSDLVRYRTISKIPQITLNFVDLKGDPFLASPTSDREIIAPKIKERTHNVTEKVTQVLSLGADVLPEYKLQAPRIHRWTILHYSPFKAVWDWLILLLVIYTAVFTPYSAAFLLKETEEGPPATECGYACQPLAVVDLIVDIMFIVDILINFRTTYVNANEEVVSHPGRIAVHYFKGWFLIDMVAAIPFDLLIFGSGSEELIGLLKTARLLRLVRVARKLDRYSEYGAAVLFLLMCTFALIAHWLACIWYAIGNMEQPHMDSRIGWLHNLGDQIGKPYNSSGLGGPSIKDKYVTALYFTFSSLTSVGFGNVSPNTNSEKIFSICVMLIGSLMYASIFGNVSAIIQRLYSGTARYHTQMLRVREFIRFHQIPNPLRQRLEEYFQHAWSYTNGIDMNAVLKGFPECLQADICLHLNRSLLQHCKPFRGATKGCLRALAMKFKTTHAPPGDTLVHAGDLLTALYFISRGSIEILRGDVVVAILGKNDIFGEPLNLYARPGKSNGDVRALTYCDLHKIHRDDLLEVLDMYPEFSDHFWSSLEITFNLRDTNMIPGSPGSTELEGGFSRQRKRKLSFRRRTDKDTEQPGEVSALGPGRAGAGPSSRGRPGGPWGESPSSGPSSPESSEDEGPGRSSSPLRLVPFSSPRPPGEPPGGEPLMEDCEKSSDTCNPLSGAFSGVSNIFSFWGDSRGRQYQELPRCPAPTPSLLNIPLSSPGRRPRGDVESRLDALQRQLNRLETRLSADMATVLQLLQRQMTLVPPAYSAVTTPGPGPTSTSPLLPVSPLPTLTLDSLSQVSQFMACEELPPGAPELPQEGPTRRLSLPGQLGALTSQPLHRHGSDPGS

[14] = system: Rattus norvegicus; test: Suppression of glucose tolerance in Wistar Kyoto N-STZ-1.5 rat model of streptozotocin-induced diabetes at 0.1 to 1 mg/kg, po followed by glucose challenge; assay type: functional, organism-based; conditions: dose mg/kg 0.1-1
[15] = system: Rattus norvegicus; test: Suppression of body weight in Wistar Kyoto N-STZ-1.5 rat model of streptozotocin-induced diabetes at 0.1 to 1 mg/kg, po followed by glucose challenge during 2-week-dosing study; assay type: functional, organism-based; conditions: dose mg/kg 0.1-1, time 2.0 weeks
[16] = Oral bioavailability in Sprague-Dawley rat at 1 mg/kg by high-performance LC-tandem MS analysis; assay type: ADME, organism-based; conditions: in vivo
[17] = Total clearance in ICR mouse at 0.1 mg/kg, iv by high-performance LC-tandem MS analysis; assay type: ADME, organism-based; conditions: in vivo
[18] = Cmax in ICR mouse at 1 mg/kg, po by high-performance LC-tandem MS analysis; assay type: ADME, organism-based; parameters: route oral, dose 1 mg/kg; conditions: in vivo
[19] = Oral bioavailability in ICR mouse at 1 mg/kg by high-performance LC-tandem MS analysis; assay type: ADME, organism-based; conditions: in vivo
[20] = AUC (0 to 8 hrs) in Sprague-Dawley rat at 1 mg/kg, po by high-performance LC-tandem MS analysis; assay type: ADME, organism-based; parameters: time < 8 hr, route oral, dose 1 mg/kg; conditions: in vivo
[21] = Cmax in Sprague-Dawley rat at 1 mg/kg, po by high-performance LC-tandem MS analysis; assay type: ADME, organism-based; parameters: route oral, dose 1 mg/kg; conditions: in vivo
[22] = Volume of distribution at steady state in Sprague-Dawley rat at 0.1 mg/kg, iv by high-performance LC-tandem MS analysis; assay type: ADME, organism-based; conditions: in vivo, read-out: Vdss
[23] = system: Rattus norvegicus; test: Stimulation of GLP1 release in Wistar Kyoto N-STZ-1.5 rat model of streptozotocin-induced diabetes at 0.1 to 1 mg/kg, po followed by glucose challenge by ELISA; assay type: functional, organism-based; conditions: dose mg/kg 0.1-1
[24] = MRT in ICR mouse at 1 mg/kg, po by high-performance LC-tandem MS analysis; assay type: ADME, organism-based; conditions: in vivo
[25] = AUC (0 to 8 hrs ) in ICR mouse at 1 mg/kg, po by high-performance LC-tandem MS analysis; assay type: ADME, organism-based; parameters: time < 8 hr, route oral, dose 1 mg/kg; conditions: in vivo
[26] = MRT in Sprague-Dawley rat at 1 mg/kg, po by high-performance LC-tandem MS analysis; assay type: ADME, organism-based; conditions: in vivo
[27] = Volume of distribution at steady state in ICR mouse at 0.1 mg/kg, iv by high-performance LC-tandem MS analysis; assay type: ADME, organism-based; conditions: in vivo, read-out: Vdss
[28] = target: T1, Free fatty acid receptor 1; test: Agonist activity at human GPR40 expressed in CHO cells at 1 uM incubated for 60 mins by FLIPR based Ca2+ mobilization assay relative to gamma-linolenic acid; assay type: functional, cell-based
[29] = target: T1, Free fatty acid receptor 1; test: Binding affinity to human GPR40 expressed in CHO cells in presence of 10 and 100 nM […] by LC-MS analysis based competitive binding assay; assay type: cell-based; conditions: filed as agonist, dose nM 10-100
[30] = target: T1, Free fatty acid receptor 1; test: Binding affinity to human GPR40 expressed in CHO cells assessed as formation of protein-ternary complex by LC-MS analysis; assay type: cell-based; conditions: filed as agonist
[31] = system: Rattus norvegicus; test: Suppression of glucose tolerance in Wistar Kyoto N-STZ-1.5 rat model of streptozotocin-induced diabetes at 10 mg/kg, po followed by glucose challenge; assay type: functional, organism-based
[32] = system: Rattus norvegicus; test: Stimulation of insulin secretion in Wistar Kyoto N-STZ-1.5 rat model of streptozotocin-induced diabetes at 10 mg/kg, po followed by glucose challenge by ELISA; assay type: functional, organism-based

T1 sequence (O14842 whole entry): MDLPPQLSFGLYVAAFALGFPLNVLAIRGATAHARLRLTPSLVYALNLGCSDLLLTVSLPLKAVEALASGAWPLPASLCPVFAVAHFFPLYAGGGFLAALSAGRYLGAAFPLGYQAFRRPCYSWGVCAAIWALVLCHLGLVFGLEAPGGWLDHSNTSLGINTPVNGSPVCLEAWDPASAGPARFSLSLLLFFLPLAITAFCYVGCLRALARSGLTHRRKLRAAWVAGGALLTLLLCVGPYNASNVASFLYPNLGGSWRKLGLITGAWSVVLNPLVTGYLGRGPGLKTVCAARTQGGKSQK

Row | SMILES | EC50 [1] [nM] | Emax [2] [%] | Activity [5] [%] | viability at 24 h, 30 µM [6] [%] | other results
1 | COc1ccc(C(=O)N(CC(C)(C)OC)c2ccccn2)c(N2CCC(COc3cccc(C(CC(=O)O)C4CC4)c3)CC2)c1 (stereo unspecified) | 100 | 105 | – | – | –
2 | CCOC(CC(=O)O)c1cccc(OCC2CCN(c3cc(OC)ccc3C(=O)N(CC(C)(C)C)c3cccc(C)n3)CC2)c1 (stereo unspecified) | 74 | 104 | – | – | –
3 | COc1ccc(F)c(-c2ccc(COc3cccc([C@@H](CC(=O)O)C4CC4)c3)cc2C2=CCCC2(C)C)c1 | 150 | 182 | – | – | Kd [3]: 5 nM
4 | COc1ccc(C(=O)N(CC(C)(C)C)c2cccc(C)n2)c(N2CCC(COc3cccc(C(CC(=O)O)OC)c3)CC2)c1 (stereo unspecified) | 62 | 109 | – | – | –
5 | COc1ccc(C(=O)N(CC(C)(C)C)c2cccc(C)n2)c(N2CCC(COc3cccc(C(CC(=O)O)C4CC4)n3)CC2)c1 (stereo unspecified) | – | – | – | – | Activity [4]: 39%
6 | COc1ccc(C(=O)N(CC(C)C)c2ccccn2)c(N2CCC(COc3cccc(C(CC(=O)O)C4CC4)c3)CC2)c1 (stereo unspecified) | 29 | 107 | – | – | –
7 | COc1ccc(C)c(N2CCC(COc3cccc(C(CC(=O)O)C4CC4)c3)CC2)c1 (stereo unspecified) | 270 | 113 | 8.3 | 67.4 | –
8 | COc1ccc(C(=O)N(C)c2ccccc2)c(N2CCC(COc3cccc(C(CC(=O)O)C4CC4)c3)CC2)c1 (stereo unspecified) | 140 | 101 | 2.8 | 79.3 | –
9 | COc1ccc(C(=O)N(C)CC(C)(C)C)c(N2CCC(COc3cccc(C(CC(=O)O)C4CC4)c3)CC2)c1 (stereo unspecified) | 100 | 107 | 6.6 | 82.2 | –
10 | COc1ccc(C(=O)N(CC(C)(C)C)c2cccc(C)n2)c(N2CCC(COc3cc([C@H](CC(=O)O)C4CC4)ccn3)CC2)c1 | 83 | 109 | – | – | –
11 | Cc1cc(OCCCS(C)(=O)=O)cc(C)c1-c1cccc(COc2ccc3c(c2)OC[C@H]3CC(=O)O)c1 | – | – | – | – | AUC(0-t) at 336 h [7]: 255 ng·h/mL; Cmax [8]: 39.8 ng/mL; AUC(0-t) at 24 h [9]: 100000 ng·h/mL; Cmax [10]: 5300 ng/mL
12 | COc1ccc(C(=O)N(CC(C)(C)C)c2cccc(C)n2)c(N2CCC(COc3cc([C@@H](CC(=O)O)C4CC4)ccn3)CC2)c1 | 12 | 108 | – | 92.1 | clearance [11]: 24.6 mL/min/kg; Activity [12]: Active; IC50 [13]: > 10000 nM; AUC(0-t) at 336 h [7]: 626 ng·h/mL; Cmax [8]: 139 ng/mL; Activity [14]: Active; Activity [15]: Active; bioavailability [16]: 16%; clearance [17]: 43.1 mL/min/kg; Cmax [18]: 33.2 ng/mL; bioavailability [19]: 26%; AUC(0-t) at 8 h [20]: 127 ng·h/mL; Cmax [21]: 19.9 ng/mL; Vd [22]: 3.09 L/kg; Activity [23]: Active; MRT [24]: 2.3 h; AUC(0-t) at 8 h [25]: 98.7 ng·h/mL; MRT [26]: 4.1 h; Vd [27]: 1.35 L/kg
13 | COc1ccc(C(=O)N(CC(C)(C)C)c2cccc(C)n2)c(N2CCC(COc3cccc(C4(CC(=O)O)COC4)c3)CC2)c1 | 840 | 115 | – | – | –
14 | COc1cccc(N2CCC(COc3cccc(C(CC(=O)O)C4CC4)c3)CC2)c1 (stereo unspecified) | – | – | -1.1 | 92 | Activity ([4]; filed as agonist): 91%; Activity [28]: 8%
15 | COc1ccc(F)c(N2CCC(COc3cccc(C(CC(=O)O)C4CC4)c3)CC2)c1 (stereo unspecified) | 670 | 114 | -1.7 | 72.7 | –
16 | COc1ccc(C(=O)N(CC(C)(C)C)c2ccccn2)c(N2CCC(COc3cccc(C(CC(=O)O)C4CC4)c3)CC2)c1 (stereo unspecified) | 26 | 110 | – | – | –

Row | SMILES | EC50 [1] [nM] | Emax [2] [%] | Activity [5] [%] | viability at 24 h, 30 µM [6] [%] | other results
17 | COc1ccc(CCCC(C)(C)C)c(N2CCC(COc3cccc(C(CC(=O)O)C4CC4)c3)CC2)c1 (stereo unspecified) | 11 | 106 | 26 | 0.1 | Activity [29]: Active; Activity [30]: Active
18 | COc1ccc(CN(C)CC(C)C)c(N2CCC(COc3cccc(C(CC(=O)O)C4CC4)c3)CC2)c1 (stereo unspecified) | 1000 | 110 | -1.1 | 80.7 | –
19 | COCC(CC(=O)O)c1cccc(OCC2CCN(c3cc(OC)ccc3C(=O)N(CC(C)(C)C)c3cccc(C)n3)CC2)c1 (stereo unspecified) | 120 | 104 | – | – | –
20 | COc1ccc(CCC(C)(C)C)c(N2CCC(COc3cccc(C(CC(=O)O)C4CC4)c3)CC2)c1 (stereo unspecified) | 34 | 110 | 67.3 | 0.1 | –
21 | N[C@@H](CC(=O)N1CCn2c(nnc2C(F)(F)F)C1)Cc1cc(F)c(F)cc1F | – | – | – | – | Activity [31]: Active; Activity [32]: Active
22 | COc1ccc(C(=O)N(CC(C)(C)C)c2cccc(C)n2)c(N2CCC(COc3cccc(C(CC(=O)O)C4CC4)c3)CC2)c1 (stereo unspecified) | 17 | 109 | – | – | –
23 | COc1ccc(CCCC(C)(C)C)c(N2CC(COc3cccc(C(CC(=O)O)C4CC4)c3)C2)c1 (stereo unspecified) | 250 | – | – | – | –
24 | COc1ccc(C(=O)N(CC(C)(C)C)c2cccc(C)n2)c(N2CCC(COc3cc(C(CC(=O)O)C4CC4)ccn3)CC2)c1 (stereo unspecified) | 17 | 112 | – | – | –
25 | COc1ccc(CCC(C)(C)O)c(N2CCC(COc3cccc(C(CC(=O)O)C4CC4)c3)CC2)c1 (stereo unspecified) | 970 | 109 | 0.1 | 76.6 | –
26 | COc1ccc(F)c(-c2ccc(COc3cccc([C@@H](CC(=O)O)C4CC4)c3)nc2CC(C)(C)C)c1 | 150 | 66 | – | – | –
27 | COc1ccc(CCCC(C)(C)C)c(N2CCC(Oc3cccc(C(CC(=O)O)C4CC4)c3)CC2)c1 (stereo unspecified) | – | – | – | – | Activity [4]: 22%
28 | COc1ccc(CCCC(C)(C)C)c(-c2ccc(COc3cccc(C(CC(=O)O)C4CC4)c3)cc2)c1 (stereo unspecified) | 410 | 105 | – | – | –
29 | COc1ccc(C(=O)N(C)c2ccccn2)c(N2CCC(COc3cccc(C(CC(=O)O)C4CC4)c3)CC2)c1 (stereo unspecified) | 180 | 105 | -1.1 | 83.6 | –
30 | COc1ccc(C(=O)N(CC(C)(C)C#N)c2ccccn2)c(N2CCC(COc3cccc(C(CC(=O)O)C4CC4)c3)CC2)c1 (stereo unspecified) | 160 | 108 | – | – | –
31 | COc1ccc(C(C)C)c(N2CCC(COc3cccc(C(CC(=O)O)C4CC4)c3)CC2)c1 (stereo unspecified) | 120 | 117 | 43.4 | 0.1 | –
